Laboratory results from patent publication US20060045891A1, “Density-matched suspension vehicles and pharmaceutical suspensions” (priority 2004, published 2006).

Assay: Suspension of spheres: sphere placed in the vehicle and centrifuged
Type: physicochemical
Conditions: Lucite sphere density 1.20 g/cc; two minutes at 1000 rpm; no calcium carbonate particles
Text: Precipitated calcium carbonate particles (density 2.71 g/cc and average particle size 0.7 microns) were mixed with Vitamin E (density 0.95 g/cc) at a particle weight fraction of 0.333 (15% by volume of dense particles) to create a suspending vehicle. According to equation (1), the density of the suspending vehicle is 1.21 g/cc.
A small Delrin sphere (density 1.35 g/cc, 3/32″ diameter) was placed in a first container holding the suspending vehicle.
A Lucite sphere (density 1.20 g/cc, 3/32″ diameter) was placed in a second container holding the suspending vehicle and centrifuged at 2000 rpm for 2 minutes.
In contrast, the Lucite sphere was placed in a third container of pure Vitamin E only and centrifuged for two minutes at 1000 rpm.

For Vitamin E, the “behaviour of Lucite sphere in the vehicle after centrifuging” value was “sank to the bottom of the container in less than one minute”.
